Source: paper PMC8373216, “Development and Preclinical Evaluation of New Inhaled Lipoglycopeptides for the Treatment of Persistent Pulmonary Methicillin-Resistant Staphylococcus aureus Infections” (Antimicrobial Agents and Chemotherapy, 2021)
Values after ≈ are worked out from the molar mass of the structure shown. Where two headings read alike, the source gives them in different places.

Tests used:
[1] = system: Streptococcus pneumoniae; assay: Expanded panel broth microdilution MIC/MBC; assay type: cell-based
[2] = system: MRSA ATCC BAA 1556 (USA300) biofilm; assay: MRSA biofilm killing, MBEC assay system, TSB with 1% human plasma
[3] = system: Staphylococcus epidermidis; assay: Expanded panel broth microdilution MIC/MBC; assay type: cell-based; settings: for MIC: Staphylococcus epidermidis
[4] = system: Cutibacterium acnes; assay: Expanded panel broth microdilution MIC; assay type: cell-based
[5] = system: Clostridioides difficile; assay: Expanded panel broth microdilution MIC; assay type: cell-based
[6] = system: Clostridium. perfringens; assay: microbe, parasite or virus in culture; assay type: cell-based
[7] = system: MRSA (ATCC BAA 1556; USA300); assay: Acute pulmonary MRSA infection in neutropenic rats, nebulized nose-only inhalation; assay type: in vivo, Staphylococcus aureus; settings: inhaled at 24 and 32 h postinfection, lungs at 48 h, 49.8 mg/kg delivered
Description: Rats were rendered neutropenic with intraperitoneal (i.p.) cyclophosphamide on day −4 (150 mg/kg) and day −1 (100 mg/kg) relative to the challenge. On day 0 at 0 h, rats were challenged with MRSA via intranasal instillation at a target titer of 8.0 to 8.3 log10 CFU. At 24 and 32 h postchallenge, rats were loaded into a 12-port inhalation dosing tower, where they received nebulized drug or vehicle control treatments by nose-only inhalation. Animals were euthanized at 48 h postinfection for enumeration of lung MRSA titer. MRSA lung titer of test article treatments versus control is plotted for three separate experiments. […] Statistics are based on the Kolmogorov-Smirnov test for drug treatment versus control (RV94, P = 0.01). LOD = 2.1 log10 CFU/lungset.
Male Sprague Dawley rats (Envigo, Indianapolis, IN) weighing between 225 and 250 g were used in these studies. Rats were housed and acclimated to the study facility as described in the PK methods section. Rats were rendered neutropenic through a series of intraperitoneal cyclophosphamide (Sigma-Aldrich) injections on day −4 (150 mg/kg) and day −1 (100 mg/kg) relative to the challenge. On day 0 at 0 h, rats were challenged with MRSA ATCC BAA 1556 via intranasal instillation at a target titer of 8.0 to 8.3 log10 CFU using optical density and back-counting inoculum CFU. To prepare the inoculum, a frozen aliquot of the organism stored at −80°C was thawed, transferred into TSB, and incubated at 37°C while shaking for 16 h. Cultures were then centrifuged at 2,000 × g for 5 min, and the resulting pellet was resuspended in PBS and equilibrated. For the challenge procedure, rats were first anesthetized through use of 2 to 5% isoflurane in 100% oxygen, then restrained with a scruff grip and a total of 200 μl of inoculum was quickly introduced to one nare. The rat was held in a vertical position until the challenge was fully inhaled. Rats were monitored following challenge to ensure that normal respiration was achieved and then returned to their cage. […] At necropsy, whole lungs were aseptically removed and lung weights were recorded. […]

[8] = Single-dose nebulized nose-only inhalation PK in healthy rats; assay type: in vivo, rat; settings: single nebulized nose-only inhaled dose, healthy rats
In short: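 Ten or eleven rats per cohort dosed once by nebulized nose-only inhalation, delivered dose estimated from 5 min aerosol filter sampling. Lungs and plasma collected from immediately postdose (~30 min) to 168 h; drug quantified by LC-MS/MS after protein precipitation. PK by noncompartmental analysis, linear up/log down.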

[9] = system: Enterococcus faecium; assay: Expanded panel broth microdilution MIC/MBC; assay type: cell-based; settings: for MIC: Enterococcus faecium
[10] = system: Staphylococcus lugdunensis; assay: Expanded panel broth microdilution MIC; assay type: cell-based
[11] = system: Streptococcus mitis; assay: Expanded panel broth microdilution MIC/MBC; assay type: cell-based; settings: for MIC: Streptococcus mitis
[12] = system: MRSA ATCC BAA 1556 (USA300); assay: In-house broth microdilution MIC screening; assay type: cell-based, Staphylococcus aureus; settings: Staphylococcus aureus, read-out: MIC Value, MRSA ATCC BAA 1556

## CN[C@H](CC(C)C)C(=O)N[C@H]1C(=O)N[C@@H](CC(N)=O)C(=O)N[C@H]2C(=O)N[C@H]3C(=O)N[C@H](C(=O)N[C@H](C(=O)O)c4cc(O)cc(O)c4-c4cc3ccc4O)[C@H](O)c3ccc(c(Cl)c3)Oc3cc2cc(c3O[C@@H]2O[C@H](CO)[C@@H](O)[C@H](O)[C@H]2O[C@H]2C[C@](C)(N)[C@H](O)[C@H](C)O2)Oc2ccc(cc2Cl)[C@H]1O [Vancomycin, vancomycin]
[1]; S. pneumoniae PISP, MBC on one organism
  MIC:MBC: 8
[1]; S. pneumoniae PRSP, 1 isolate
  MIC: 0.25 mg/L (≈ 0.173 µM)
[1]; Streptococcus pneumoniae
  MIC: 0.12 mg/L (≈ 0.0828 µM)
[1]; Streptococcus pneumoniae, ATCC49619
  MIC: 1 mg/L (≈ 0.69 µM)
[1]; Streptococcus pneumoniae, PRSP
  MIC: 0.25 mg/L (≈ 0.173 µM)
[1]; Streptococcus pneumoniae, read-out: MIC (median)
  MIC: 0.6 mg/L (≈ 0.414 µM)
[2]; MBEC, 512 μg/ml
  Maximum reduction in MRSA biofilm titer relative to control: 1.1 log10 CFU/peg
[2]; MBEC, two-way ANOVA, Bonferroni
  Concentrations with statistically significant reduction versus control biofilm: ≥ 16 µg/mL
[2]; plasma-supplemented MBEC assay, dose not stated
  Reduction in MRSA biofilm titer: ~1 log10 CFU/peg
[3]; S. epidermidis MRSE, MBC on one organism
  MIC:MBC: 1
[3]; ATCC49134, S. epidermidis ATCC 49134, MSSE
  MIC: 0.5 mg/L (≈ 0.345 µM)
[3]; MRSE, S. epidermidis MMX 762, MRSE
  MIC: 1 mg/L (≈ 0.69 µM)
[3]; MRSE, S. epidermidis MMX 5145, MRSE
  MIC: 1 mg/L (≈ 0.69 µM)
[3]; MRSE, read-out: MIC (median), S. epidermidis MRSE, 2 isolates
  MIC: 1 mg/L (≈ 0.69 µM)
[3]; S. epidermidis MSSE, 1 isolate
  MIC: 0.5 mg/L (≈ 0.345 µM)
[4]; ATCC6919
  MIC: 0.25 mg/L (≈ 0.173 µM)
[4]; ATCC11827
  MIC: 0.12 mg/L (≈ 0.0828 µM)
[4]; read-out: MIC (median)
  MIC: 0.19 mg/L (≈ 0.131 µM)
[5]; ATCCBAA1805, C. difficile ATCC BAA-1805, ribo 027
  MIC: 0.5 mg/L (≈ 0.345 µM)
[5]; ATCCBAA1870, C. difficile ATCC BAA-1870, NAP1;ribo 027
  MIC: 1 mg/L (≈ 0.69 µM)
[5]; C. difficile ATTC 700057, toxAB-
  MIC: 0.25 mg/L (≈ 0.173 µM)
[5]; C. difficile NAP1;ribo 027, 1 isolate
  MIC: 1 mg/L (≈ 0.69 µM)
[5]; C. difficile ribo 027, 1 isolate
  MIC: 0.5 mg/L (≈ 0.345 µM)
[5]; C. difficile toxAB-, 1 isolate
  MIC: 0.25 mg/L (≈ 0.173 µM)
[6]
  MIC: 0.25 mg/L (≈ 0.173 µM)
[6]; ATCC13124, read-out: MIC
  MIC: 0.25 mg/L (≈ 0.173 µM)
[7]
  Average increase in lung MRSA titer versus inhaled vehicle control: 0.1 log10 CFU
[8]; male, Sprague Dawley, rat, in vivo, inhaled or intranasal, noncompartmental analysis, read-out: Lung t1/2 (converted)
  half-life: 23 h
[8]; male, Sprague Dawley, rat, in vivo, inhaled or intranasal, read-out: Lung: Plasma Cmax ratio
  Kp: 4
[8]; male, Sprague Dawley, rat, in vivo, inhaled or intranasal, read-out: Plasma Cmax
  Cmax: 8 µg/mL
[8]; measured directly in lung tissue
  Pulmonary dose: 0.20 mg/kg
[8]
  Lung AUC0-∞: 671 µg·h/g
  Lung Cmax: 31 µg/g
[9]; E. faecium VanB VRE
  MIC:MBC: >2
[9]; E. faecium MMX 4204, VSE
  MIC: 0.5 mg/L (≈ 0.345 µM)
[9]; E. faecium VSE, 1 isolate
  MIC: 0.5 mg/L (≈ 0.345 µM)
[9]; VRE, E. faecium MMX 173, VanB VRE
  MIC: 64 mg/L (≈ 44.2 µM)
[9]; VRE, E. faecium MMX 851, VanA VRE
  MIC: 128 mg/L (≈ 88.3 µM)
[9]; VRE, E. faecium VanA VRE, 1 isolate
  MIC: 128 mg/L (≈ 88.3 µM)
[9]; VRE, E. faecium VanB VRE, 1 isolate
  MIC: 64 mg/L (≈ 44.2 µM)
[10]; S. lugdunensis, 1 isolate
  MIC: 0.25 mg/L (≈ 0.173 µM)
[10]; Staphylococcus lugdunensis
  MIC: 0.25 mg/L (≈ 0.173 µM)
[11]; S. mitis MGS, MBC on one organism
  MIC:MBC: 1
[11]
  MIC: 0.25 mg/L (≈ 0.173 µM)
[11]; ATCC49456
  MIC: 0.25 mg/L (≈ 0.173 µM)
[11]; read-out: MIC (median)
  MIC: 0.25 mg/L (≈ 0.173 µM)
[12]
  MIC: 1 mg/L (≈ 0.69 µM)
